Data reported in ChEMBL document CHEMBL5038672, “Conversion of a PROTAC Mutant Huntingtin Degrader into Small-Molecule Hydrophobic Tags Focusing on Drug-like Properties” (ACS Med Chem Lett, 2022).
Active and inactive are the calls of the source. The calls are words filed in the database; no cut-off is given here.

Experiments:
HeLa [1] = experiment: Induction of EGFP fused Htt Q145 mutant exon 1 (unknown origin) degradation expressed in human HeLa cells assessed as HSP70/CHIP recruitment based proteosome mediated mHtt exon 1-Q145 degradation at 10 uM measured after 24 hrs by Western blot analysis; assay type: cell-based
[2] = Apparent permeability across apical to basolateral side in human Caco-2 cells at 10 uM; assay type: ADME, cell-based; conditions: for Papp A→B at 10 µM: Caco-2
[3] = Efflux ratio of apparent permeability across basolateral to apical side over apical to basolateral side in human Caco-2 cells at 10 uM; assay type: ADME, cell-based; conditions: for efflux ratio at 10 µM: Caco-2
[4] = Apparent permeability across basolateral to apical side in human Caco-2 cells at 10 uM; assay type: ADME, cell-based; conditions: for Papp B→A at 10 µM: Caco-2
HeLa [5] = experiment: Induction of EGFP fused Htt Q145 mutant exon 1 (unknown origin) degradation expressed in human HeLa cells assessed as HSP70/CHIP recruitment based proteosome mediated mHtt exon 1-Q145 degradation at higher concentration measured after 24 hrs by Western blot analysis; assay type: cell-based
[6] = Ratio of drug concentration in brain to plasma in C57BL/6J mouse at 0.1 to 0.7 mg/kg, iv measured after 4 hrs; assay type: ADME, organism-based; conditions: brain and plasma, dose 0.1-0.7 mg/kg
HeLa [7] = experiment: Induction of EGFP fused Htt Q145 mutant exon 1 (unknown origin) degradation expressed in human HeLa cells assessed as HSP70/CHIP recruitment based proteosome mediated mHtt exon 1-Q145 degradation at 5 uM measured after 24 hrs by Western blot analysis; assay type: cell-based
HeLa [8] = experiment: Induction of EGFP fused Htt Q145 mutant exon 1 (unknown origin) degradation expressed in human HeLa cells assessed as HSP70/CHIP recruitment based proteosome mediated decrease in aggregate foci at 10 uM incubated for 24 hrs by Hoechst33342 staining based fluorescence microscopic analysis; assay type: cell-based; design: scale not given: the % may be the effect or the level left
HeLa [9] = experiment: Induction of EGFP fused Htt Q23 mutant exon 1 (unknown origin) degradation expressed in human HeLa cells assessed as HSP70/CHIP recruitment based proteosome mediated mHtt exon 1-Q23 degradation at 1 to 10 uM measured after 48 hrs by Western blot analysis; assay type: cell-based; conditions: dose 1-10 µM
HeLa [10] = experiment: Induction of EGFP fused Htt Q145 mutant exon 1 (unknown origin) degradation expressed in human HeLa cells assessed as HSP70/CHIP recruitment based proteosome mediated mHtt exon 1-Q145 degradation at 10 uM preincubated with geldanamycin for 6 hrs and measured after 24 hrs by Western blot analysis; assay type: cell-based
HeLa [11] = experiment: Induction of EGFP fused Htt Q145 mutant exon 1 (unknown origin) degradation expressed in human HeLa cells assessed as HSP70/CHIP recruitment based proteosome mediated mHtt exon 1-Q145 degradation at 10 uM measured after 24 hrs by Western blot analysis in the presence of bortezomib; assay type: cell-based
HeLa [12] = experiment: Induction of EGFP fused Htt Q145 mutant exon 1 (unknown origin) degradation expressed in human HeLa cells assessed as HSP70/CHIP recruitment based proteosome mediated mHtt exon 1-Q145 degradation at 10 uM measured after 24 to 48 hrs by Western blot analysis; assay type: cell-based; conditions: time 24-48 hrs
[13] = system: Huntingtin (Homo sapiens), P42858 [UNDEFINED MUTATION]; experiment: Induction of mutant Htt (unknown origin) degradation expressed in human fibroblasts cells assessed as HSP70/CHIP recruitment based proteosome mediated mHtt degradation by western blot analysis; assay type: cell-based; conditions: Fibroblast
Chain of Huntingtin (Homo sapiens), P42858 [UNDEFINED MUTATION] (P42858 whole entry, looked up, change not shown): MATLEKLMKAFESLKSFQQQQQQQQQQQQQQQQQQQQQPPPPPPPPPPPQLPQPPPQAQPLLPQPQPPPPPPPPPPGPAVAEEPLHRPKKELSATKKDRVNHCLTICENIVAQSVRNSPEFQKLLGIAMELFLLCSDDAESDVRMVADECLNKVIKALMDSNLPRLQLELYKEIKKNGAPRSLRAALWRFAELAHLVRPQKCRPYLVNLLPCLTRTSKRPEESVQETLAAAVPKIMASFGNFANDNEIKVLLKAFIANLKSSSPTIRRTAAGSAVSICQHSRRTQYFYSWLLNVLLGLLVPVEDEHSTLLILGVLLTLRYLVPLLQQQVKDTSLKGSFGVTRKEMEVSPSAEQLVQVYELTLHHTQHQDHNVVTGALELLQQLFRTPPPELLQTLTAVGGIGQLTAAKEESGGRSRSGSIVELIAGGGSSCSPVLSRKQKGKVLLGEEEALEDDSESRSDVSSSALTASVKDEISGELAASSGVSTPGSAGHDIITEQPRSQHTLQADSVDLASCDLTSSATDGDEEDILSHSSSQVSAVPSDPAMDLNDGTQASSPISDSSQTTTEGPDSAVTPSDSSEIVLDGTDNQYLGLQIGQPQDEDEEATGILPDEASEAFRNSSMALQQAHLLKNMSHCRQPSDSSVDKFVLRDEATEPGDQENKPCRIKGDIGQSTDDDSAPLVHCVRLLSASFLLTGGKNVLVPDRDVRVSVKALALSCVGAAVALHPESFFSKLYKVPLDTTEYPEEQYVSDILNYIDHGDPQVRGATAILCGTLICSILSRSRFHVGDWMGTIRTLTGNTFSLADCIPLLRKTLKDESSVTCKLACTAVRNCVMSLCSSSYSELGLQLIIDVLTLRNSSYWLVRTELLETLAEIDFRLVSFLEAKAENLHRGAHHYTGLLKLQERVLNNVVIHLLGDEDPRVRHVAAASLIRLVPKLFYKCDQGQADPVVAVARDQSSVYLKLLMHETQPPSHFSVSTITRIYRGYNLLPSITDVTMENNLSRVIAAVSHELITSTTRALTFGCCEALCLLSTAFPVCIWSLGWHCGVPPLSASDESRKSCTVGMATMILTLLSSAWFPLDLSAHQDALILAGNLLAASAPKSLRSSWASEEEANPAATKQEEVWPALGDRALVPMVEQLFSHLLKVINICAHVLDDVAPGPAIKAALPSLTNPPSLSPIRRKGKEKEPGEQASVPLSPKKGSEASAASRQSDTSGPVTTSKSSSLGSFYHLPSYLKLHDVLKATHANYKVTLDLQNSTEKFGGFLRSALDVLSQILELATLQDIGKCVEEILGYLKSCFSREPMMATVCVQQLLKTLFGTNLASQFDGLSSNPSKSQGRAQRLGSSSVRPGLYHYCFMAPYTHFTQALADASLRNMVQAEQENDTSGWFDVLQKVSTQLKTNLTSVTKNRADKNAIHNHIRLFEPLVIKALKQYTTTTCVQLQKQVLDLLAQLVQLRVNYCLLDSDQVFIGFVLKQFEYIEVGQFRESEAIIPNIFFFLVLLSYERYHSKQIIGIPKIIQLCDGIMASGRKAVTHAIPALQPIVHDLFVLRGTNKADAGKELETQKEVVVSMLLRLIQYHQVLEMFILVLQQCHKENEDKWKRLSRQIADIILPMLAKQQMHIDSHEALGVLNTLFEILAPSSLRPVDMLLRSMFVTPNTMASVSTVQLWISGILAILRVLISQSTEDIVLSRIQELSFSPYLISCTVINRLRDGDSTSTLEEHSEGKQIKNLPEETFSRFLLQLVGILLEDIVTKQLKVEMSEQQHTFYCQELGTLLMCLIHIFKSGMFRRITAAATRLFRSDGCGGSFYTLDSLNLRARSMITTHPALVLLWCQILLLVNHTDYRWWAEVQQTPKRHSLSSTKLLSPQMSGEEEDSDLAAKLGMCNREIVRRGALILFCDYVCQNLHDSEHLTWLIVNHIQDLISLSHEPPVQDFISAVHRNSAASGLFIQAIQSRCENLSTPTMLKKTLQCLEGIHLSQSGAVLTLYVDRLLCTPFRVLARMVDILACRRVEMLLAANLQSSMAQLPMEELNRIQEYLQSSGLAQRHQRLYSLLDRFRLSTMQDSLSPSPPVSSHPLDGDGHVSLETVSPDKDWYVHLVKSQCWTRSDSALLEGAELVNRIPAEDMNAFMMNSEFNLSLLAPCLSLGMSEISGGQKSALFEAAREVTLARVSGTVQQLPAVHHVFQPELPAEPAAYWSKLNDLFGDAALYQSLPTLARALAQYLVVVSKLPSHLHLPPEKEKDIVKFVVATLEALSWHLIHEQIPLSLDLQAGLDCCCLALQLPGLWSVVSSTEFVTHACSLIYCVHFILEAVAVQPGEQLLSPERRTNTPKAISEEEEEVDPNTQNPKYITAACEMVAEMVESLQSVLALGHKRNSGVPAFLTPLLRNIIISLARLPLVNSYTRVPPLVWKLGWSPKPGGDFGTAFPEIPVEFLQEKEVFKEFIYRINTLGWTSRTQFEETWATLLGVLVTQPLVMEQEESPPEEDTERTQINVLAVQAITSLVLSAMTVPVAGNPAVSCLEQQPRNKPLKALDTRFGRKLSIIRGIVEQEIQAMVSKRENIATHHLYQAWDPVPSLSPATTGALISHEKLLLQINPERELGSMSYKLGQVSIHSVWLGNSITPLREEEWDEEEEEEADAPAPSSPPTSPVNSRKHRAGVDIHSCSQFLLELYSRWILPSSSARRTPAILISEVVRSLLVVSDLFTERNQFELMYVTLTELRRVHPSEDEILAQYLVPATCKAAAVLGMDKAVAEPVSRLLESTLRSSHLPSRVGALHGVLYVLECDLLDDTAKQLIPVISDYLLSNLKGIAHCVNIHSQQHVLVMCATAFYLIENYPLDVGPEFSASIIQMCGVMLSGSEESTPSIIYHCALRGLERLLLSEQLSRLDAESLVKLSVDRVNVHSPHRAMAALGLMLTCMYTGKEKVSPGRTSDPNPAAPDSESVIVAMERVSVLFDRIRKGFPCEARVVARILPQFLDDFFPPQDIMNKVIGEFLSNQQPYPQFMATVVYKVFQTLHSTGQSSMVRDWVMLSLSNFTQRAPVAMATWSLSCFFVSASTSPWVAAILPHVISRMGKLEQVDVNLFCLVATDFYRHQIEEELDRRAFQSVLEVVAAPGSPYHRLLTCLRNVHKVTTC

## OCCOCCOCCOCCOC12CC3CC(CC(C3)C1)C2
HeLa [1]
  Activity: inactive

## CC(C)C[C@H](NC(=O)[C@@H](O)[C@H](N)Cc1ccccc1)C(=O)NCCOCCOCCOc1ccc2nc(/N=N/c3ccc(N(C)C)cc3)sc2c1
[2]
  Papp A→B at 10 µM: 1.03 ×10⁻⁶ cm/s
[3]
  efflux ratio at 10 µM: 0.19
[4]
  Papp B→A at 10 µM: 0.196 ×10⁻⁶ cm/s

## CN(C)c1ccc(/N=N/c2nc3ccc(OCCOCCOCCOCCOc4cccc5ccccc45)cc3s2)cc1
HeLa [5]
  Activity: Active

## CN(C)c1ccc(/N=N/c2nc3ccc(OCCOCCOC45CC6CC(CC(C6)C4)C5)cc3s2)cc1
[6]
  Kp at 4 h: 4.89
[4]
  Papp B→A at 10 µM: 4.71 ×10⁻⁶ cm/s

## CN(C)c1ccc(/N=N/c2nc3ccc(OCCOCCOCCOCCOC45CC6CC7C8CC(CC74)CC5C8C6)cc3s2)cc1
[6]
  Kp at 4 h: 0.13
[2]
  Papp A→B at 10 µM: 5.32 ×10⁻⁶ cm/s
[3]
  efflux ratio at 10 µM: 0.235
[4]
  Papp B→A at 10 µM: 1.25 ×10⁻⁶ cm/s
HeLa [7]
  Activity: 60%

## CCCCCC(CCCCC)OCCOCCOCCOCCOc1ccc2nc(/N=N/c3ccc(N(C)C)cc3)sc2c1
[2]; caco-2, 10 µM
  Papp: 2.46 10^-6 cm/s
[3]; caco-2, 10 µM
  Ratio: 0.241
[4]; caco-2, 10 µM
  Papp: 0.241 10^-6 cm/s
HeLa [5]
  Activity: Active

## CN(C)c1ccc(/N=N/c2nc3ccc(OCCOCCOCCOCCOC45CC6CC(CC(C6)C4)C5)cc3s2)cc1
[2]
  Papp A→B at 10 µM: 0.098 ×10⁻⁶ cm/s
[3]
  efflux ratio at 10 µM: 1.2
HeLa [8]
  Activity: 60%
HeLa [9]
  Activity: inactive
[4]
  Papp B→A at 10 µM: 0.118 ×10⁻⁶ cm/s
HeLa [10]
  Activity: Active
HeLa [11]
  Activity: inactive
HeLa [12]
  Activity: Active
[13]
  Activity: Dose-Dependent Effect
HeLa [7]
  Activity: inactive

## CN(C)c1ccc(/N=N/c2nc3ccc(O)cc3s2)cc1
HeLa [1]
  Activity: inactive

## CN(C)c1ccc(/N=N/c2nc3ccc(OCCOCCOCCOCCOC(c4ccccc4)c4ccccc4)cc3s2)cc1
HeLa [5]
  Activity: Active
